The values that follow come from paper PMC8510344, “Bile-Acid-Appended Triazolyl Aryl Ketones: Design, Synthesis, In Vitro Anticancer Activity and Pharmacokinetics in Rats” (Molecules, 2021).

For data set [1], the system named is MCF-7 (human breast adenocarcinoma) cells. In words: MTT cytotoxicity assay, MCF-7. Type of data set: cell-based. Particulars: Homo sapiens, MCF7, 10 µM, 48 h exposure, read-out: % Cell Viability at 10 µM MCF-7. How it is done: (§1) The cytotoxicity activity of all the conjugates (6aa–6df) was evaluated in vitro by MTT assay against two different breast cancer cell lines 4T1 (murine) and MCF-7 (human) and HEK 293 (human) as normal cell line. DTX was used as positive control. Cells were grown in DMEM supplemented with 10% FBS and 1% antibiotic solution and incubated at 5% CO2 and 37 °C for 24 h. The stock solutions of all the conjugates were prepared in DMSO and diluted for further use. Briefly, 5 × 10^3 cells/well were seeded in 96-well cell culture plates and allowed to adhere for 24 h. Cell inhibition (%) was determined after 48 h exposure to the compounds at 1–25 μM concentration. After 48 h, MTT assay was performed and the yellow tetrazolium salt (MTT) was reduced in metabolically active cells to form insoluble purple formazan crystals, which were solubilized by the addition of DMSO. The optical density (OD) was recorded at 560 nm and 630 nm as reference wavelength. Percentage cell inhibition was determined by comparison with untreated cells.
In general terms: Formazan colour is commonly taken as a measure of viable cells.

For data set [2], the system named is 4T1 (mouse mammary carcinoma) cells. In words: MTT cytotoxicity assay, 4T1. Type of data set: cell-based. The settings on record: Mus musculus, 10 µM, 48 h exposure, read-out: % Cell Viability at 10 µM 4T1. As for the experimental part: as §1
The nature of data set [3]: MTT cytotoxicity assay, normal cell line HEK 293. Type of data set: cell-based. Particulars: human, HEK 293 cells, HEK 293 normal cells, 48 h exposure. As for the experimental part:
as §1

For another data set, the system named is MCF-7 cells. The experiment in a line: Annexin V/PI apoptosis assay by flow cytometry, MCF-7. Type of data set: cell-based, human. The settings on record: 6af at 2.61 µM, 6cf at 5.71 µM (respective IC50), 48 h. How it is done: (§2) The extent of apoptosis induced by compounds 6af and 6cf in MCF-7 and 4T1 cells was quantified by flow cytometry according to the manufacturer’s protocol. Briefly, cells were seeded in a 6-well plate at a cell density of 1 × 10^6 cells/well. After 24 h, the media was discarded and cells were treated with fresh media containing compounds 6af and 6cf at their respective IC50 concentrations for 48 h. After treatment, cells were trypsinized, harvested in PBS and collected by centrifugation for 5 min at 2000 rpm. Cells were then resuspended in 1X binding buffer and stained with FITC-labeled Annexin V Alexa Fluor 488 (5 μL) and propidium iodide (10 μL). Cells were analyzed using flow cytometer (Beckman Coulter), and data were analyzed with CytExpert software.

The next data set relates to 4T1 cells. The experiment in a line: Annexin V/PI apoptosis assay by flow cytometry, 4T1. Type of data set: cell-based, mouse. The settings on record: 6af at 12.84 µM, 6cf at 8.76 µM (respective IC50), 48 h. How it is done: as §2
(In general: In flow cytometry, cells or beads pass a laser one at a time.)

Data set [4] is described as follows: Pharmacokinetic study in Wistar rats, i.v. bolus. Type of data set: in vivo. The settings on record: rat plasma, 10 mg/kg i.v. bolus. How it is done:
Wistar rats (male; 8–10 weeks, 200–240 g) were procured from Central Animal Facility, BITS Pilani (Pilani, India). Animal experiment protocol was approved by Institutional Animal Ethics Committee (IAEC/RES/24/03), BITS Pilani, Pilani, and all experiments were conducted as per CPCSEA guidelines. Rats were housed in well-ventilated cages at standard laboratory conditions with regular light/dark cycles for 12 h and fed with standard normal diet ab libitum.
The pharmacokinetic study of 6cf was performed on Wistar rats. 6cf solution (prepared in normal saline with 5% w/v tween 80) was administered intravenously at the dose of 10 mg/kg with maximum dosing volume of 300 µL to each rat without fasting (n = 4). After i.v. dosing, blood samples were collected for each preset time point at 10, 20, 30, 50 min, 1.5, 2, 4, 6, 8, 12 and 24 h. 6cf plasma concentration–time profile was plotted and analyzed by non-compartmental model approach using Phoenix 2.1 WinNonlin (Pharsight Corporation, USA) to determine t1/2, elimination half-life; C0, drug concentration in plasma at t = 0; AUC0-t, area under curve from zero to the last time point; AUC0–∞, area under curve from zero to infinity; and MRT, mean residence time.
A simple liquid–liquid extraction (LLE) method was used for extraction of 6cf from the rat plasma. A 200 µL aliquot of plasma sample containing 6cf was taken in 5 mL glass tube, followed by the addition of 100 µL of internal standard (I.S.) (clobetasol, 2 µg/mL) solution. Samples were vortexed for 1 min, and then 2 mL of ethyl acetate was added as extracting solvent. The samples were vortexed for 5 min and centrifuged at 5000 rpm for 15 min at 4 °C. The organic layer was collected and evaporated to dryness at 40 ± 0.5 °C. The residue was reconstituted with 250 µL of mobile phase and vortexed for 1 min. Finally, 150 µL of sample was injected into HPLC for quantification.
A Thermo Fisher Rapid Separation (RS) UHPLC System (Ultimate 3000) equipped with a pump (LPG-3400SD), Diode Array Detector (DAD) (DAD-3000) and autosampler (ACC-3000T) with 250 µL injection loop was used for purity analysis. The UHPLC system was equilibrated for approximately 40 min before beginning the sample analysis. Column temperature was 35° throughout the analysis. 6cf and I.S. were separated on Intersil® ODS (C18) column (250 × 4.6 mm, 5µm) with a mobile phase consisting of acetonitrile:water (60:40 % v/v) run in isocratic mode at a flow rate of 1 mL/min, detection wavelength 259 nm and injection volume of 150 µL. […] Control of hardware and data handling was performed using Chromeleon software version 7.2 SR4.

Data set [5] deals with leukemia cell line (K562). The settings on record: cited from earlier work.
In data set [6] the test system is leukemia cell line (Jurkat). Details: method as in doi:10.1039/c3nj00513e. The settings on record: cited from earlier work.
Data set [7] relates to Lymphoblastic leukemia cell line (CCRF-CEM). Details: method as in PMID 23291595. The settings on record: cited from earlier work.
For data set [8], the system named is Human prostate cancer cell line (PC-3). Details: method as in PMID 23884119, PMID 25476168, PMID 30220830, PMID 23584541, PMID 28158265. Particulars: literature example of Figure 1; cited from earlier work.

Where “and” joins values, the source holds several entries; their conditions need not be identical. Equal values may be shown once. Read-outs that look alike come from different tables or passages of the source.

The viability is a read-out of living cells in per cent, often relative to untreated cells. The term MRT denotes the average time that molecules of a dose stay in the body. For orientation: melting point means the temperature, or range, at which the solid turns liquid. In general, IC50 refers to the concentration that inhibits the measured activity by half.

For the compound `C[C@H](CCC(=O)NCc1cn(CC(=O)c2ccc(Br)cc2)nn1)C1CCC2C3C(C[C@H](O)[C@@]21C)[C@@]1(C)CC[C@@H](O)CC1C[C@H]3O` (stereo partly drawn) [6cf, (4R)-N-((1-(2-(4-Bromophenyl)-2-oxoethyl)-1H-1,2,3-triazol-4-yl)methyl)-4-((3R,7R,10S,12S,13R)-3,7,12-trihydroxy-10,13-dimethylhexadecahydro-1H-cyclopenta[a]phenanthren-17-yl)pentanamide], the melting point is 144 to 145 °C. Moreover, the viability at 10 µM in data set [1] worked out at 37.5%. Besides, in [2], the viability at 10 µM is 49.3%. Moreover, in data set [3], the viability at 48 h, 10 µM was greater than 86%. Further, in the data set with MCF-7 cells, the “apoptosis (total) in MCF-7 cells” value is 46.09%. Also, in the data set on 4T1 cells, the “total apoptosis in 4T1 cells” value is 19.56%. For the same compound, in data set [4] (male, Wistar, iv, conversion of 1752.69 ng/mL, read-out: initial concentration converted to molar), the C0 is roughly 2560 nM. For the same compound, in data set [4] (male, Wistar, iv, mean ± SEM, read-out: Area Under the Curve (0 to 12 h), AUC0–last), the AUC(0-t) worked out at 2000 ± 87.4 ng·h/mL. The AUC(0-inf) in data set [4] (male, Wistar, iv, mean ± SEM, read-out: Area Under the Curve (0 to infinity), AUC0–∞) is 2690 ± 113 ng·h/mL. Further, in data set [4] (male, Wistar, iv, mean ± SEM, read-out: Elimination Rate Constant, Ke (converted)), the k el was 3.61e-05 s⁻¹. Further, in data set [4] (male, Wistar, iv, mean ± SEM, read-out: Half-Life, t1/2 (converted)), the half-life was 5.63 ± 0.539 h. Further, the C0 in data set [4] (male, Wistar, iv, mean ± SEM, read-out: Initial Concentration, C0) worked out at 1750 ± 66.5 ng/mL. Moreover, the MRT in data set [4] (male, Wistar, iv, mean ± SEM, read-out: Mean Residence Time, MRT) worked out at 8.47 ± 0.96 h. For the same compound, in data set [4] (mean ± SEM), the “Area Under the First Moment Curve (0 to 12 h), AUMC0–last” value stood at 8155.94 ± 311.78 ng·h/mL and the “Area Under the First Moment Curve (0 to infinity), AUMC0–∞” value stood at 22276.39 ± 2023.334 ng·h/mL.
Consider `CC(CCn1cc(CCCCC#Cc2nc3c(N)ncnc3n2C2CC(O)C(CO)O2)nn1)C1CCC2C3C(O)CC4CC(O)CCC4(C)C3CCC12C` (centres unmarked) [VI], for which the IC50 in data set [5] is 16.2 ± 2.2 µM.
On to `COC(=O)CCC(C)C1CCC2C3C(O)CC4CC(n5cc(CCCC#Cc6nc7c(N)ncnc7n6C6CC(O)C(CO)O6)nn5)CCC4(C)C3CCC12C` (centres unmarked) [VII], for which the IC50 is 8.51 µM and 8.5 µM in data set [5]; 10.5 ± 2.64 µM in data set [6].
Turning to `CC(CCC(=O)OCc1cn(Cc2cccc(Cn3cc(COC(=O)CCC(C)C4CCC5C6C(O)CC7CC(O)CCC7(C)C6CC(O)C45C)nn3)n2)nn1)C1CCC2C3C(O)CC4CC(O)CCC4(C)C3CC(O)C12C` (centres unmarked) [V], in [7], the IC50 is 3.98 µM.
Take `CC(=O)c1ccc(OCc2cn(CC(=O)C3CCC4C5CC=C6CC(O)CCC6(C)C5CCC34C)nn2)cc1` (centres unmarked) [I]: in [8], the IC50 is 0.03 µM.
